Test results as given in ChEMBL document CHEMBL1201862, “PubChem BioAssay data set” (2004).
Activity calls are given as the source filed them.

Assays:
Nonstructural protein 1 = Nonstructural protein 1 (Influenza A virus, UniProt Q194T2); assay type: functional, Influenza A virus (A/California/07/2009(H1N1))
[1] = AlphaScreen signal interference compounds, dose response, artefact control for ARNT-TACC3 interaction inhibitor project, biochemical, luminescence, cherry-pick (AID 651705); assay type: functional;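 also: AlphaScreen bead proximity signal that flags compounds interfering with the detection technology; potency reflects signal decrease which marks the compound as an assay artifact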
fMet-Leu-Phe receptor = target: T1, fMet-Leu-Phe receptor (Homo sapiens, UniProt P21462); experiment: FPR ligands, dose response (AID 519); assay type: functional
T1 sequence (P21462 whole entry): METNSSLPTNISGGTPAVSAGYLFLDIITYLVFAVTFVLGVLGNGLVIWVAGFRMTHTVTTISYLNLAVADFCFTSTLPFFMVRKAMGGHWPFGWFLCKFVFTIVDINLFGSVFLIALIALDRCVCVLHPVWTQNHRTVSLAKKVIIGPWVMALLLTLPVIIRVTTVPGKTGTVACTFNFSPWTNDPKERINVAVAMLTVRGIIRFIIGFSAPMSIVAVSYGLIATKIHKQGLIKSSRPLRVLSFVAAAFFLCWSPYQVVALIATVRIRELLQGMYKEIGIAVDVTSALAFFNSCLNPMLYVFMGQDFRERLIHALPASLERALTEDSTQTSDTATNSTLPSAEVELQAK

[2] = target: Ras and Rab interactor 1/Tyrosine-protein kinase ABL1 (Homo sapiens, UniProt P00519+Q13671); assay type: functional;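 also: biochemical TR-FRET dose-response test measuring inhibition of binding between Rin1 and Abl proteins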
[3] = target: T2, Nuclear receptor subfamily 0 group B member 1 (Homo sapiens, UniProt P51843); assay type: functional, cell-based;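 also: HEK293T cells transfected with SF-1 and DAX-1 plus StAR promoter luciferase reporter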
T2 sequence (P51843 whole entry): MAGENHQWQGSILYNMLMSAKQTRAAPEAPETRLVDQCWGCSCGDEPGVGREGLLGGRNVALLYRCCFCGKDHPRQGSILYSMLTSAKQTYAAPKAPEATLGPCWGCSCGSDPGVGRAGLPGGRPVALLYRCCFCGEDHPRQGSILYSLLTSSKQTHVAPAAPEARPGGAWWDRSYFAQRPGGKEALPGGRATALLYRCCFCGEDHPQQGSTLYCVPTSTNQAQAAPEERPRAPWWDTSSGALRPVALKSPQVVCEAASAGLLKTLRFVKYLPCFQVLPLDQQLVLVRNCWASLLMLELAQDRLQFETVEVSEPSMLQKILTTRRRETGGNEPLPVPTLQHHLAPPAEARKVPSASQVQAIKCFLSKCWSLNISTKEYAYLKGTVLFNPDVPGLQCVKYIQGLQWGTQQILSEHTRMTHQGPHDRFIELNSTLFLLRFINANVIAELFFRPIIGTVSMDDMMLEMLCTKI

cells [4] = assay type: functional, cell-based
cells [5] = assay type: functional, cell-based; remark: listed apart in the source
cells [6] = assay type: functional, cell-based; remark: listed apart in the source
[7] = target: T3, Trace amine-associated receptor 1 (Homo sapiens, UniProt Q96RJ0); experiment: Fluorescence-based cell-based high throughput dose response assay to identify agonists of the human trace amine associated receptor 1 (TAAR1).; assay type: functional
T3 sequence (Q96RJ0 whole entry): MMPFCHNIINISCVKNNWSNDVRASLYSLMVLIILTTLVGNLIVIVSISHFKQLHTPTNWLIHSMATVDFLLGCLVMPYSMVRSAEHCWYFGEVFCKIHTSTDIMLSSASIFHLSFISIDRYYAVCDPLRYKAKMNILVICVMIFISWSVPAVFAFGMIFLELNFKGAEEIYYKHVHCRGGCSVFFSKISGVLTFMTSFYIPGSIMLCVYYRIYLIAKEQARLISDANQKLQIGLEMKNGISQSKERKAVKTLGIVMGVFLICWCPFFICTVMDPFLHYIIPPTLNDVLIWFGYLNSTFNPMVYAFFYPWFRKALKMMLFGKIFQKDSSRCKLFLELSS

[8] = target: T3, Trace amine-associated receptor 1; experiment: Counterscreen for agonists of the human trace amine associated receptor 1 (hTAAR1): Fluorescence-based cell-based high throughput dose response assay to identify hTAAR1 agonist that also desensitize TAAR1 receptor response.; assay type: functional
[9] = target: T4, Methionyl-tRNA synthetase, putative (Trypanosoma brucei brucei, UniProt Q38C91); assay type: functional, Trypanosoma brucei brucei strain 927/4 GUTat10.1
T4 sequence (Q38C91 whole entry): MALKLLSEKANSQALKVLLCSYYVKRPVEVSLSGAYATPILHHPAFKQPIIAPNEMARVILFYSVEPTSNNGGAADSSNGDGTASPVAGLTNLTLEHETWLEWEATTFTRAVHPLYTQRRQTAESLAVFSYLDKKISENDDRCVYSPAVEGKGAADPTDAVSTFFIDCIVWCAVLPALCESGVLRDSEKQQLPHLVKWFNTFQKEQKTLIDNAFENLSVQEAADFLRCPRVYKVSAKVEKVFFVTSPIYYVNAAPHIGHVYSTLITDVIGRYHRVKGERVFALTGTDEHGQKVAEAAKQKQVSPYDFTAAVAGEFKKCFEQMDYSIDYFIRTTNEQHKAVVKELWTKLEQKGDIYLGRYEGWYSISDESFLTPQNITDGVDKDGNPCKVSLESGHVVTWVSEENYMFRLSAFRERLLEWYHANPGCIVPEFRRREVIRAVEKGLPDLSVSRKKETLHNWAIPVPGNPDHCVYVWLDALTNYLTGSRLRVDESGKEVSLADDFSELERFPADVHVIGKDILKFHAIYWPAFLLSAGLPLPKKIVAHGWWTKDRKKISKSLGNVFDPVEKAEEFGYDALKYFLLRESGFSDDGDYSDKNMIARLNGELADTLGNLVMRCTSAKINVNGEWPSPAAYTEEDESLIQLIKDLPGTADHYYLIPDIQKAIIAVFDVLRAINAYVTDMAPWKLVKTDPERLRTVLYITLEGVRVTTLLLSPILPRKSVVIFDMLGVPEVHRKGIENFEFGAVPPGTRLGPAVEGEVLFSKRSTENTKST

[10] = target: T4, Methionyl-tRNA synthetase, putative; assay type: functional, Trypanosoma brucei brucei strain 927/4 GUTat10.1; remark: listed apart in the source
[11] = Counterscreen for inhibitors of Trypanosoma brucei methionyl tRNA synthetase (MetRS): Luminescence-based cell-based high throughput dose response assay to identify compounds that are cytotoxic to Jurkat human T lymphocyte cells.; assay type: functional
[12] = target: T5, Rac GTPase-activating protein 1 (Homo sapiens, UniProt Q9H0H5); experiment: MgcRacGAP GTPase-activating activity inhibitors, confirmation, biochemical, ADP Hunter fluorescence, primary and confirmatory (AID 624330); assay type: functional
T5 sequence (Q9H0H5 whole entry): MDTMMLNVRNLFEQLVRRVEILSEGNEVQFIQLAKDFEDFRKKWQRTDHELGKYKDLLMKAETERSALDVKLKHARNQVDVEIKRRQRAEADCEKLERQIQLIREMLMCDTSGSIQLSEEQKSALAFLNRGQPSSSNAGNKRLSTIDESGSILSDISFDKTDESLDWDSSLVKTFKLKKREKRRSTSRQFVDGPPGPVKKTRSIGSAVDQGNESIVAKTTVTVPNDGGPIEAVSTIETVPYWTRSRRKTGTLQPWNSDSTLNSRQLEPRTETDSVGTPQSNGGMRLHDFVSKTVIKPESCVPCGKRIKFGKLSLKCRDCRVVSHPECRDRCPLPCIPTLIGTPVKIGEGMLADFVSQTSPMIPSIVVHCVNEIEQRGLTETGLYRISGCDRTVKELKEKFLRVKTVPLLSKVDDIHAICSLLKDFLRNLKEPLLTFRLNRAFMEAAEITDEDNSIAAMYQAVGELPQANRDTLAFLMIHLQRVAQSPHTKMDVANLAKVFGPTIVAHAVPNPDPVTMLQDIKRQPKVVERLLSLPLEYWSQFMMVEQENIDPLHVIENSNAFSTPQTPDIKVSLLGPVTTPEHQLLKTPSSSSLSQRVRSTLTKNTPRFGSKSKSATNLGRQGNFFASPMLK

[13] = miR-122 activators in hepatoma reporter cells, dose response, cell-based, Huh7 psiCHECK-miR122, Renilla luciferase, cherry-picked (AID 651956); assay type: functional;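 also: huh7 hepatoma cells stably carrying a psiCHECK-2 miR-122 sensor plasmid; renilla luciferase signal reporting endogenous miR-122 activity after 48 h compound exposure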
Leucine aminopeptidase = target: T6, Leucine aminopeptidase (Plasmodium falciparum 3D7, UniProt Q8IL11); experiment: P. falciparum M17LAP inhibitors, primary screen, biochemical, fluorogenic H-Leu-NHMec substrate, 1536-well (AID 1619); assay type: functional
T6 sequence (Q8IL11 whole entry): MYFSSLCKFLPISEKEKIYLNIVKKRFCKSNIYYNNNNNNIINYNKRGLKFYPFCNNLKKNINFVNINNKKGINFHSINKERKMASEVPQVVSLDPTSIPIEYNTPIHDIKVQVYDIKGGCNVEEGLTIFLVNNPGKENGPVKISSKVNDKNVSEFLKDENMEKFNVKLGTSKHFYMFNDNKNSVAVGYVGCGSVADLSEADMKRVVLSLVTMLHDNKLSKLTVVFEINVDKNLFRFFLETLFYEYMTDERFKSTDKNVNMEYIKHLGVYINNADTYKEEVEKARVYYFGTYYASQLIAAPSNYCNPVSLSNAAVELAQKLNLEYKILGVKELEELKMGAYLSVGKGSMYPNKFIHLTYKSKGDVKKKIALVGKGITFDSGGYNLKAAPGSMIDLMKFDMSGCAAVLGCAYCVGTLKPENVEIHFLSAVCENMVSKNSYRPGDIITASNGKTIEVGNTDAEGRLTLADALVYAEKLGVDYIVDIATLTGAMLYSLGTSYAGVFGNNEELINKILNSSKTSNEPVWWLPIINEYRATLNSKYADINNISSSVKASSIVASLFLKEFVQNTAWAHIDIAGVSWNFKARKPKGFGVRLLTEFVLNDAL

Genome polyprotein = Genome polyprotein (dengue virus type 2, UniProt P29990); experiment: Dengue-2 NS5 methyltransferase inhibitors, primary screen, biochemical, confirmation dose response (AID 588689); assay type: functional
H4 = experiment: Luminescence Cell-Based Dose Response HTS to Identify Activators of 5'UTR Stem-Loop Driven Prion Protein mRNA Translation in H4 Neuroglioblastoma Cells. [Related pubchem assays: 1829 (Project Summary), 1814 (Primary HTS)]; assay type: functional; details: Homo sapiens
[14] = Luminescence Cell-Based Dose Response HTS to Identify Activators of Luciferase Translation or Activity in H4 […] Cells. [Related pubchem assays: 1829 (Project Summary), 1814 (Primary HTS)]; assay type: functional

Chain of Ras and Rab interactor 1/Tyrosine-protein kinase ABL1 (P00519 whole entry): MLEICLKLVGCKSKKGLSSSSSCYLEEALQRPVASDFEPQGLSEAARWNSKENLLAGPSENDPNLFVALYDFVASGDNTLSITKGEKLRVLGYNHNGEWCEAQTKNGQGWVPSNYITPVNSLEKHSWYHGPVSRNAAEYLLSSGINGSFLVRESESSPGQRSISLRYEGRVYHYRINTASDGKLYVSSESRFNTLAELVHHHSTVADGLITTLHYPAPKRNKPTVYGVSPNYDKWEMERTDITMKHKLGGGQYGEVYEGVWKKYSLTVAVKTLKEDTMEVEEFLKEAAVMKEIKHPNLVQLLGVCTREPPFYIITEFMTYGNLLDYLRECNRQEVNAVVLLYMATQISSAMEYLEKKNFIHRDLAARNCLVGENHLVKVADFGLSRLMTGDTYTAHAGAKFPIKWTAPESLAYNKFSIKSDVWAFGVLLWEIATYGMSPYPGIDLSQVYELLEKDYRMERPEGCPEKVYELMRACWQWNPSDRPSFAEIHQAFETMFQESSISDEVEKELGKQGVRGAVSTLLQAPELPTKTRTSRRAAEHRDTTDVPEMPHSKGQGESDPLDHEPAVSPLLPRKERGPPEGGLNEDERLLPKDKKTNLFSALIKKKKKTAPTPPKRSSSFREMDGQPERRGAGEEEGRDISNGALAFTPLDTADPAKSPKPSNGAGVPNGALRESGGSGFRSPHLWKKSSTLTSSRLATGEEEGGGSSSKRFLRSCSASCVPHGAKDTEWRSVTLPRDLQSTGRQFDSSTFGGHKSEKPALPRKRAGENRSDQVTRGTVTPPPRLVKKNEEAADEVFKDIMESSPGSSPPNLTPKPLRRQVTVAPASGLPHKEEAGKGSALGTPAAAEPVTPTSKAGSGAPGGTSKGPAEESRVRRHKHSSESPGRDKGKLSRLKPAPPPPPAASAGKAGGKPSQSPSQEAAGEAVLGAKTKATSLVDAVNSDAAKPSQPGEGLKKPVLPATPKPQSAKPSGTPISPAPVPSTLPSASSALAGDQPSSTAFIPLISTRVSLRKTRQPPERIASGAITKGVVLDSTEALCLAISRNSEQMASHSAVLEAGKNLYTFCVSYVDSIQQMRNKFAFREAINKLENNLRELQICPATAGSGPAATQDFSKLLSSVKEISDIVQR
Chain of Ras and Rab interactor 1/Tyrosine-protein kinase ABL1 (Q13671 whole entry): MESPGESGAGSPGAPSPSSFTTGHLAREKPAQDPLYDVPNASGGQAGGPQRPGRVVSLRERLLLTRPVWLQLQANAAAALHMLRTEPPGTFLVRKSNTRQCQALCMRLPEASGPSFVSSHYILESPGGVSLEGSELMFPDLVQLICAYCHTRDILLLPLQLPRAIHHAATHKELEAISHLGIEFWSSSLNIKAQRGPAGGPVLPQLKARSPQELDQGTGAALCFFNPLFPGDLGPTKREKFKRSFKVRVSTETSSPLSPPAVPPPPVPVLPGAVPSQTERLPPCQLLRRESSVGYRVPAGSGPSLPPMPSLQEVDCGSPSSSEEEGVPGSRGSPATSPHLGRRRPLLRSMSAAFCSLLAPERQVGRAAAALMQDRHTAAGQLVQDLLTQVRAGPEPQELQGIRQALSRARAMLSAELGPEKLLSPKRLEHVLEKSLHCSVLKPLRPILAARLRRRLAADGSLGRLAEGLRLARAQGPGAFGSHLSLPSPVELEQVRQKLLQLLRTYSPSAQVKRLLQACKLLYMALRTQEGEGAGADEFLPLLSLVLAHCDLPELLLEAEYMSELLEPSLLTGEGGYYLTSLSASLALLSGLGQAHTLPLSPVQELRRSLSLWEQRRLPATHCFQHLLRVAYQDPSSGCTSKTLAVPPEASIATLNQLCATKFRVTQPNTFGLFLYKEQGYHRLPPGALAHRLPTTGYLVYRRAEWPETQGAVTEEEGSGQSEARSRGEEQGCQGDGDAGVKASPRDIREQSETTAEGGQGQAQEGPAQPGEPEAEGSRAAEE
Chain of Nonstructural protein 1 (Q194T2 whole entry): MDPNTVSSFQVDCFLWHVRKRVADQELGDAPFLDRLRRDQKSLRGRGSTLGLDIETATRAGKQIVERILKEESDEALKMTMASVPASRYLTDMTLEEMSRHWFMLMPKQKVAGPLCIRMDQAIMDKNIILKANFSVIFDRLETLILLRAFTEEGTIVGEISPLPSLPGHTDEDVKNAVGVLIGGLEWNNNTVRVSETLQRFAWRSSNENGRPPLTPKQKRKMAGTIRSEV
Chain of Genome polyprotein (P29990 2492-3391 limits assumed): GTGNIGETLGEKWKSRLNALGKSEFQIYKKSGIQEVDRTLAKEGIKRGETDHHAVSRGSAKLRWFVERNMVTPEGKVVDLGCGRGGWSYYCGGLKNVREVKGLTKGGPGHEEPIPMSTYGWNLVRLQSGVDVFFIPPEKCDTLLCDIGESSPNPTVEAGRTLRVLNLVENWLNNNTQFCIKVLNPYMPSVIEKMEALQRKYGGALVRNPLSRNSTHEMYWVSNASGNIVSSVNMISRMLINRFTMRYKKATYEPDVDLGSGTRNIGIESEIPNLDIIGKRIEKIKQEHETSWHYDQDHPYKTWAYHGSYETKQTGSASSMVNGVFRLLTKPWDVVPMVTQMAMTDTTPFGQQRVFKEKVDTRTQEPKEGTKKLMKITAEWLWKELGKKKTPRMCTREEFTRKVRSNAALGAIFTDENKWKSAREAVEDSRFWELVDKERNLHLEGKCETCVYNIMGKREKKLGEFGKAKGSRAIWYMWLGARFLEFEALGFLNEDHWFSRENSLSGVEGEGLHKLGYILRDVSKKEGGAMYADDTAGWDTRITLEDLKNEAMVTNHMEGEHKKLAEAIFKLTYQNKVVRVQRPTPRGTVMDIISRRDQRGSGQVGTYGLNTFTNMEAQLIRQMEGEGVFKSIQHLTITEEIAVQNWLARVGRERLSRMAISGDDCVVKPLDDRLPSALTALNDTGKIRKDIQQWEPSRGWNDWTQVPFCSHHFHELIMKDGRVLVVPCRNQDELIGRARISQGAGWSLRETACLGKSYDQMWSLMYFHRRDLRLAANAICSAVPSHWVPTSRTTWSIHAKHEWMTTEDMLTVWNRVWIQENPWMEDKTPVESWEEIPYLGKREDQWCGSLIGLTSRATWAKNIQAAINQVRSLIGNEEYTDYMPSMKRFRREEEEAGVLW

For CN1CCC(=O)N(CCOc2ccccc2)CC1, the IC50 (Nonstructural protein 1) was 18.9 µM (active) and the AC50 [1] was 77.4 µM (active).
In the case of CC(C)(C)C(=O)Nc1ccccc1C(=O)NCCCn1ccnc1, the AC50 [1] is reported as 131 µM (active).
In the case of CC(C)OC(=O)c1cc(NC(=O)C2C3CCC(O3)C2C(=O)O)cc(C(=O)OC(C)C)c1 (stereo not drawn), the Ki (fMet-Leu-Phe receptor) is reported as 41.5 µM (inactive).
With CC[C@]12c3[nH]c4ccc(OC)cc4c3CCN1C(=O)C(CC(=O)NCCCN(C)C)C[C@@H]2C(=O)N1CCN(C(=O)c2ccco2)CC1 (stereo partly drawn) the IC50 [2] was 35.3 µM (inactive).
With O=C(Nc1ccc(N2CCCC2)cc1)c1cccc(F)c1 the IC50 [3] was > 67.5 µM (inactive) and the IC50 (cells [4]) was > 67.5 µM (inactive).
For O=C1CNC(=O)/C1=C/NC12CC3CC(CC(C3)C1)C2, the IC50 [2] was 19.4 µM (inactive).
In the case of CCCC(=O)N1CCCC(c2cc(C(=O)Nc3ccc4c(c3)OCO4)no2)C1 (stereo not drawn), the IC50 [3] is reported as > 67.6 µM (inactive) and the IC50 (cells [4]) is reported as > 67.6 µM (inactive).
In the case of O=C(NCCc1ccccc1)C(c1ccncc1)N(C(=O)c1csnn1)C1CC1 (stereo not drawn), the EC50 (cells [5]) is reported as > 29.9 µM (inactive), the IC50 (cells [6]) is reported as > 29.9 µM (inactive) and the EC50 [7] is reported as 2.11 µM (active). For the same compound, the IC50 [8] was 7.59 µM (active).
With COC(=O)/C(=C\Nc1ccccc1)NC(=O)c1ccc(Cl)cc1Cl the IC50 [9] was 2.71 µM (active), the IC50 [10] was 6.89 µM (active) and the IC50 [11] was 83.3 µM (inactive).
For Clc1ccc(Cc2nn3c(-c4ccncc4)nnc3s2)cc1, the Ki (fMet-Leu-Phe receptor) was > 66.7 µM (inactive).
In the case of CC(=O)Nc1ccc(Oc2nc(-c3ccccn3)nc3ccccc23)cc1, the IC50 [12] is reported as 43.5 µM (active) and the AC50 [1] is reported as 106 µM (active).
With CCN1C(=O)C(CC(=O)Nc2ccc(OC)cc2)N(CCc2ccccc2)C1=S (stereo not drawn) the IC50 [9] was 15 µM (inactive), the IC50 [10] was 23.5 µM (inactive) and the IC50 [11] was 38.9 µM (inactive).
For O=c1[nH]cnc2nc(-c3ccc(N(CCCl)CCCl)cc3)[nH]c12, the IC50 [3] was > 67.6 µM (inactive).
For NC(=O)c1cccc(-c2ccnc3c2CC(C(=O)Nc2ccc(Cl)cc2)O3)c1 (stereo not drawn), the IC50 [9] was 8.03 µM (active), the IC50 [10] was 18.7 µM (inactive) and the IC50 [11] was 58.1 µM (inactive).
With CNC[C@@H]1Oc2cc(C#CC3CCCC3)ccc2S(=O)(=O)N([C@@H](C)CO)C[C@@H]1C the AC50 [13] was 4.31 µM (active).
For Nc1cc(Oc2ccc(Cl)cc2Cl)nc(N)n1, the IC50 [9] was 22.8 µM (inactive), the IC50 [10] was 29.4 µM (inactive) and the IC50 [11] was 83.2 µM (inactive).
With Oc1[nH]cnc2nc(-c3ccc(N(CCCl)CCCl)cc3)nc1-2 the IC50 (cells [4]) was > 67.6 µM (inactive).
For COc1ccc(CCNC(=O)c2c(C)cc(=O)oc2C)cc1OC, the AC50 [13] was 57.6 µM (active).
In the case of Cc1ccc(C2C(C(=O)c3ccc(Br)cc3)=C(O)C(=O)N2Cc2ccco2)o1 (stereo not drawn), the IC50 (Leucine aminopeptidase) is reported as 66.4 µM (active), the IC50 (Genome polyprotein) is reported as > 100 µM (active) and the Ki (fMet-Leu-Phe receptor) is reported as > 66.7 µM (inactive).
In the case of O=C(Nc1ccn(CCCN2CCN(Cc3ccc(F)cc3)CC2)c(=O)n1)OCc1ccccc1, the IC50 [2] is reported as 20 µM (inactive).
In the case of Cc1cc(C2=NN=C(NCCc3ccccc3)SC2)c(C)n1CC1CCCO1 (stereo not drawn), the EC50 (cells [5]) is reported as > 29.9 µM (inactive), the EC50 (H4) is reported as 13 µM (active) and the IC50 (cells [6]) is reported as > 29.9 µM (inactive). For the same compound, the EC50 [7] was 0.553 µM (active), the EC50 [14] was 61.9 µM (active) and the IC50 [8] was 2.84 µM (active).
